The record followed here is patent US8686113B2 (priority 2009, dated 2014).

Converted amounts (≈) assume the structure as drawn. Non-standard residues stand in square brackets, D forms with d. Residues, ends and D or L forms follow the SMILES beside them. *: point of attachment. Guan = N-terminal guanidation, N=C(N)*; dOrn = NCCC[C@@H](N)C(=O)O; code O = not defined here; Orn = NCCC[C@H](N)C(=O)O

One assay has as its system E. coli BL21 A1.
Assay: not given
The assay is classed as cell-based, Escherichia coli.
Settings: not given
How it is done:
(§1) The minimum inhibitory concentrations (MIC) of the antimicrobial peptides and peptide derivatives were determined in microdilution assays. These used a continuous peptide dilution in sterile flat-bottomed 96-well microtiter plates (polystyrene, Greiner Bio-One GmbH, Frickenhausen, Germany) and a total volume of 100 μL per well. The aqueous peptide or peptidomimetic solutions were diluted with 1% TSB water, to obtain a final concentration of 256 μg/mL. 50 μL of the peptide or peptidomimetic solution was pipetted into the first well of each series and stirred. From this solution, 50 μL was transferred to the second well, stirred and again 50 μL was transferred to the next well, and so on. A double dilution series is obtained, beginning at 256 μg/mL in the first well to 125 ng/mL in the twelfth well. The bacteria, e.g. E. coli BL21 A1, were cultured overnight at 37° C. in nutrient broth (NB, Carl Roth GmbH+Co. KG, Karlsruhe, Germany). 50 μL of a 5×10^6 bacteria/mL suspension in 1% TSB was added to each well of the microtiter plate and thus a final concentration of the peptides or peptidomimetics from 128 μg/mL (well 1) to 62.5 ng/mL (well 12) was established in each series. The plates were incubated at 37° C. for 20 h and then the absorption was measured at 595 nm with a TECAN microtiter plate spectrophotometer (Tecan Trading AG, Mannedorf, Switzerland). The MIC values of all peptides and peptidomimetics were determined in triplicate. Sterile water was used as negative control. The MIC value represents the lowest peptide concentration at which no bacterial growth is observed after an incubation time of 20 h at 37° C.
(§2) The MIC values of the peptides and peptide derivatives against Escherichia coli BL21 A1 and Micrococcus luteus ATCC 10240 are given in Table 7.
Turning to “H-VDKPPYLPRPRPPRRIYNH-NH2 [SEQ ID NO. 53]”, the “times lower activity / higher MIC value than oncocin against E. coli” value was 4 times.

Still in this assay, the particulars now being: 1% TSB, 20 h at 37° C.
Regarding “84 (Guan-VDKPPYLPRPRPPRRIYNR-NH2) [compound 84]”, the “MIC E. coli BL21 A1” value came out at 32 mg/L.

As to “85 (Guan-VDKPPYLPRPRPPR[code O]IYN[code O]-NH2; reading uncertain; also: printed as Guan-VDKPPYLPRPRPPROIYNO-NH2) [compound 85]”, the “MIC E. coli BL21 A1” value was found to be 64 mg/L.

Regarding “95 ({RQIKIWFQNRRMKWKKC-Ac}-GNNRPVYIPQPRPPHPRL-OH; not fully specified (bridges); printed as RQIKIWFQNRRMKWKKC-(CH2CO-GNNRPVYIPQPRPPHPRL-OH)-; also: N-terminal CH2CO attached to Cys side chain of RQIKIWFQNRRMKWKKC-OH) [compound 95]”, the “MIC E. coli BL21 A1” value turned out to be 8 mg/L.

Staying with this assay, now noted: BL21, 20 h.
`CC[C@H](C)[C@H](NC(=O)[C@H](CCCN)NC(=O)[C@H](CCCNC(=N)N)NC(=O)[C@@H]1CCCN1C(=O)[C@@H]1CCCN1C(=O)[C@H](CCCNC(=N)N)NC(=O)[C@@H]1CCCN1C(=O)[C@H](CCCNC(=N)N)NC(=O)[C@@H]1CCCN1C(=O)[C@H](CC(C)C)NC(=O)[C@H](Cc1ccc(O)cc1)NC(=O)[C@@H]1CCCN1C(=O)[C@@H]1CCCN1C(=O)[C@H](CCCCN)NC(=O)[C@H](CC(=O)O)NC(=O)[C@@H](N)C(C)C)C(=O)N[C@@H](Cc1ccc(O)cc1)C(=O)N[C@@H](CCC(N)=O)C(=O)N[C@@H](CCCN)C(N)=O` [SEQ ID NO. 74, VDKPPYLPRPRPPROIYQO-NH2] (H-VDKPPYLPRPRPPR[Orn]IYQ[Orn]-NH2): the “MIC E. coli BL21 A1” value came out at 4 mg/L (≈ 1.72 µM).

`CC[C@@H](C)[C@@H](NC(=O)[C@@H](Cc1ccc(O)cc1)NC(=O)[C@@H](CC(N)=O)NC(=O)[C@H](N)CCCNC(=N)N)C(=O)N[C@H](CCCNC(=N)N)C(=O)N[C@H](CCCNC(=N)N)C(=O)N1CCC[C@@H]1C(=O)N1CCC[C@@H]1C(=O)N[C@H](CCCNC(=N)N)C(=O)N1CCC[C@@H]1C(=O)N[C@H](CCCNC(=N)N)C(=O)N1CCC[C@@H]1C(=O)N[C@H](CC(C)C)C(=O)N[C@H](Cc1ccc(O)cc1)C(=O)N1CCC[C@@H]1C(=O)N1CCC[C@@H]1C(=O)N[C@H](CCCCN)C(=O)N[C@H](CC(=O)O)C(=O)N[C@@H](C(N)=O)C(C)C` [SEQ ID NO. 117, rnyirrpprprplyppkdv-NH2] (H-[dR][dN][dY][dI][dR][dR][dP][dP][dR][dP][dR][dP][dL][dY][dP][dP][dK][dD][dV]-NH2): the “MIC E. coli BL21 A1” value lay in the range of 64 to 256 mg/L.

As to `CC[C@@H](C)[C@@H](NC(=O)[C@@H](Cc1ccc(O)cc1)NC(=O)[C@@H](CC(N)=O)NC(=O)[C@H](N)CCCN)C(=O)N[C@H](CCCN)C(=O)N[C@H](CCCNC(=N)N)C(=O)N1CCC[C@@H]1C(=O)N1CCC[C@@H]1C(=O)N[C@H](CCCNC(=N)N)C(=O)N1CCC[C@@H]1C(=O)N[C@H](CCCNC(=N)N)C(=O)N1CCC[C@@H]1C(=O)N[C@H](CC(C)C)C(=O)N[C@H](Cc1ccc(O)cc1)C(=O)N1CCC[C@@H]1C(=O)N1CCC[C@@H]1C(=O)N[C@H](CCCCN)C(=O)N[C@H](CC(=O)O)C(=O)N[C@@H](C(N)=O)C(C)C` [SEQ ID NO. 118, onyiorpprprplyppkdv-NH2] (H-[dOrn][dN][dY][dI][dOrn][dR][dP][dP][dR][dP][dR][dP][dL][dY][dP][dP][dK][dD][dV]-NH2), the “MIC E. coli BL21 A1” value lay within 64 to 256 mg/L.

For `CC[C@H](C)[C@H](NC(=O)[C@@H](CCCNC(=N)N)NC(=O)[C@H](CCCNC(=N)N)NC(=O)[C@@H]1CCCN1C(=O)[C@@H]1CCCN1C(=O)[C@H](CCCNC(=N)N)NC(=O)[C@@H]1CCCN1C(=O)[C@H](CCCNC(=N)N)NC(=O)[C@@H]1CCCN1C(=O)[C@H](CC(C)C)NC(=O)[C@H](Cc1ccc(O)cc1)NC(=O)[C@@H]1CCCN1C(=O)[C@@H]1CCCN1C(=O)[C@H](CCCCN)NC(=O)[C@H](CC(=O)O)NC(=O)[C@@H](N)C(C)C)C(=O)N[C@@H](Cc1ccc(O)cc1)C(=O)N[C@@H](CC(N)=O)C(=O)N[C@H](CCCNC(=N)N)C(N)=O` [compound 112] (H-VDKPPYLPRPRPPR[dR]IYN[dR]-NH2), the “MIC E. coli BL21 A1” value was 4 mg/L (≈ 1.67 µM).

Take H-VDKPPYLPRPPPPRRIYN-NH2 [compound 1]: the “MIC E. coli BL21 A1” value came out at 128 mg/L.

In the case of “H-VDKPPYLPRPRPPRRIYNH-NH2 [SEQ ID NO. 53]”, the “MIC E. coli BL21 A1” value is 16 mg/L.

The test system of a further assay is M. luteus 10240. The experiment in a line: Growth inhibition assay (microdilution MIC). The assay is classed as cell-based, Micrococcus luteus. The note with it: 1% TSB, 20 h at 37° C. The protocol: as §1, §2
In general terms: In broth dilution the organism is exposed to a series of concentrations in liquid medium.
Take “95 ({RQIKIWFQNRRMKWKKC-Ac}-GNNRPVYIPQPRPPHPRL-OH; not fully specified (bridges); printed as RQIKIWFQNRRMKWKKC-(CH2CO-GNNRPVYIPQPRPPHPRL-OH)-; also: N-terminal CH2CO attached to Cys side chain of RQIKIWFQNRRMKWKKC-OH) [compound 95]”: the “MIC M. luteus 10240” value came to 8 mg/L.

With “H-GNNRPVYIPQPRPPHPRL-OH [SEQ ID NO. 87, reference compound]”, the “MIC M. luteus 10240” value worked out at 64 mg/L.

The same assay, now with this note: 10240, 20 h.
Consider `CC[C@@H](C)[C@@H](NC(=O)[C@@H](CCCNC(=N)N)NC(=O)[C@@H](CCCNC(=N)N)NC(=O)[C@H]1CCCN1C(=O)[C@H]1CCCN1C(=O)[C@@H](CCCNC(=N)N)NC(=O)[C@H]1CCCN1C(=O)[C@@H](CCCNC(=N)N)NC(=O)[C@H]1CCCN1C(=O)[C@@H](CC(C)C)NC(=O)[C@@H](Cc1ccc(O)cc1)NC(=O)[C@H]1CCCN1C(=O)[C@H]1CCCN1C(=O)[C@@H](CCCCN)NC(=O)[C@@H](CC(=O)O)NC(=O)[C@H](N)C(C)C)C(=O)N[C@H](Cc1ccc(O)cc1)C(=O)N[C@H](CC(N)=O)C(=O)N[C@H](CCCNC(=N)N)C(N)=O` [SEQ ID NO. 115, vdkppylprprpprriynr-NH2] (H-[dV][dD][dK][dP][dP][dY][dL][dP][dR][dP][dR][dP][dP][dR][dR][dI][dY][dN][dR]-NH2), for which the “MIC M. luteus 10240” value came to 64 mg/L (≈ 26.8 µM).

Regarding `CC[C@@H](C)[C@@H](NC(=O)[C@@H](CCCN)NC(=O)[C@@H](CCCNC(=N)N)NC(=O)[C@H]1CCCN1C(=O)[C@H]1CCCN1C(=O)[C@@H](CCCNC(=N)N)NC(=O)[C@H]1CCCN1C(=O)[C@@H](CCCNC(=N)N)NC(=O)[C@H]1CCCN1C(=O)[C@@H](CC(C)C)NC(=O)[C@@H](Cc1ccc(O)cc1)NC(=O)[C@H]1CCCN1C(=O)[C@H]1CCCN1C(=O)[C@@H](CCCCN)NC(=O)[C@@H](CC(=O)O)NC(=O)[C@H](N)C(C)C)C(=O)N[C@H](Cc1ccc(O)cc1)C(=O)N[C@H](CC(N)=O)C(=O)N[C@H](CCCN)C(N)=O` [SEQ ID NO. 116, vdkppylprprpproiyno-NH2] (H-[dV][dD][dK][dP][dP][dY][dL][dP][dR][dP][dR][dP][dP][dR][dOrn][dI][dY][dN][dOrn]-NH2), the “MIC M. luteus 10240” value was determined as 128 mg/L (≈ 55.5 µM).

As to `CC[C@H](C)[C@H](NC(=O)[C@H](CCCN)NC(=O)[C@H](CCCNC(=N)N)NC(=O)[C@@H]1CCCN1C(=O)[C@@H]1CCCN1C(=O)[C@H](CCCNC(=N)N)NC(=O)[C@@H]1CCCN1C(=O)[C@H](CCCNC(=N)N)NC(=O)[C@@H]1CCCN1C(=O)[C@H](CC(C)C)NC(=O)[C@H](Cc1ccc(O)cc1)NC(=O)[C@@H]1CCCN1C(=O)[C@@H]1CCCN1C(=O)[C@H](CCCCN)NC(=O)[C@H](CC(=O)O)NC(=O)[C@@H](N)C(C)C)C(=O)N[C@@H](Cc1ccc(O)cc1)C(=O)N[C@@H](CCC(N)=O)C(=O)N[C@@H](CCCN)C(N)=O` [compound 74] (H-VDKPPYLPRPRPPR[Orn]IYQ[Orn]-NH2), the “MIC M. luteus 10240” value came out at 8 mg/L (≈ 3.45 µM).

In the case of H-VDKPPYLPRPRPPRRIYN-OH [compound 28], the “MIC M. luteus 10240” value was found to be 128 mg/L.

Consider H-VDKPPYLPRPRPPRRIYNH-NH2 [compound 53], for which the “MIC M. luteus 10240” value was found to be 16 mg/L.
